Marks after values point to notes of the source that are not given here.
Columns and labels:
A549 cells [1] = test: MTT test, A549 cells
Experimental: The next stage of this work was the study of pillar[5]arenes 1–4 ability to inhibit the viability and proliferative activity of embryonic lung epithelial (LEC) and human lung adenocarcinoma (A549) cells using the MTT test.
Further, the ability of GIS to inhibit the viability and proliferative activity of LEC and A549 cells was studied by the MTT test. […] The average inhibitory concentration (IC50) was calculated for GIS (Table 3). […]
1.6. Cytotoxicity of pillar[5]arenes 1–4, GIS and their mixtures on A549 and LEC Cell Lines […]
activity of LEC cells and A549 cells was investigated using the MTT test according to [2]. A549 – human alveolar adenocarcinoma cell line (ATCC, Rockville, Maryland, USA) and cow embryo lung epithelial (LEC) cells (Animal Cell Culture Collection of Russian Academy of Agricultural Science, Kazan, Russia) were cultured in DMEM (GIBCO, Waltham, MA, USA) medium supplemented with 10% serum and 100 units/mL of penicillin (PanEco, Moscow, Russia) and streptomycin (PanEco, Moscow, Russia) in a humidified atmosphere with 5% CO2 at 37 °C. Cells were seeded in 96‐well plates at a concentration of 10^4 cells/well. After 24 h of cultivation, the medium was removed from the wells and replaced with a fresh one with the addition of the test substances. The volume of the culture medium in the wells was 100
μL. After 24 h incubation of cells in the presence of substances, the medium in the wells was replaced with a fresh one containing MTT reagent at a final concentration of 0.5 mg/mL. The cells were incubated with MTT for 4 h at 37 °C in an atmosphere of 5% CO2. Then, the medium was aspirated from the wells and 100 μL of dimethyl sulfoxide was added. Probes were incubated at 37 °C for 15 min in the dark for the formazan crystals to dissolve. The optical density of the formazan solution in the wells was measured using a plate reader (BioRad xMarkTM Microplate Spectrophotometer, USA) at a wavelength of 570 nm.
Three series of experiments were carried out with at least 8 replications for each variant in the series. […]

A549 cells [2] = test: MTT assay, combined action of macrocycles with GIS on A549 cells; assay type: cell-based, human; details: A549, pillararene 1 × 10^–5 M with GIS 3.47 × 10^–2 M
Experimental: The ability to inhibit the viability and proliferative activity of A549 cells of macrocycles 1–4 in the presence of GIS was studied using the MTT assay. […] The developed approach opens up the possibility of creating pillar[5]arene-based herbicide antidotes. […]
fresh one with the addition of the test substances.
Then, the medium was aspirated from the wells
and 100 μL of dimethyl sulfoxide was added.
the formazan crystals to dissolve. […]
substances. […] After 24 h of incubation cells were […]

[3] = Dynamic light scattering of macrocycle aggregates in water; assay type: physicochemical; details: H2O, 298 K
Experimental: The next stage of the work was the study of aggregation properties of both previously synthesized ester derivatives of amino acids 1 and 2, and macrocyclic betaine derivatives 3 and 4 by dynamic light scattering (DLS). The study was carried out in water in the 1 × 10^–6–1 × 10^–4 M concentration range (Figures S11–S22). The size of associates increases with decreasing macrocycle 1 concentration in solution (Table 1). A different pattern is observed for betaine derivative 3. Thus, the particles become coarser, and the polydispersity index (PDI) of the systems increased with an increase in compound 3 concentration, which is probably due to the formation of β-sheets by oligopeptide substituents. The presence of two oppositely charged fragments in one substituent leads to the fact that compound 3 becomes similar to surfactant molecules in terms of its aggregation properties.

IC50 (A549 cells [1]; A549, MTT, 24 h): >100 * μg/mL
polydispersity index (PDI) ([3]; 1 × 10^–4 M): 0.36
size of aggregates d ([3]; 1 × 10^–4 M): 127 ± 16 nm
polydispersity index (PDI) ([3]; 1 × 10^–5 M): 0.41
size of aggregates d ([3]; 1 × 10^–5 M): 218 ± 10 nm
polydispersity index (PDI) ([3]; 1 × 10^–6 M): 0.42
size of aggregates d ([3]; 1 × 10^–6 M): 457 ± 65 nm
SMILES: C[N+](C)(CCCNC(=O)COc1cc2c(OCC(=O)NCCC[N+](C)(C)CC(=O)N[C@@H](Cc3ccccc3)C(=O)[O-])cc1Cc1cc(OCC(=O)NCCC[N+](C)(C)CC(=O)N[C@@H](Cc3ccccc3)C(=O)[O-])c(cc1OCC(=O)NCCC[N+](C)(C)CC(=O)N[C@@H](Cc1ccccc1)C(=O)[O-])Cc1cc(OCC(=O)NCCC[N+](C)(C)CC(=O)N[C@@H](Cc3ccccc3)C(=O)[O-])c(cc1OCC(=O)NCCC[N+](C)(C)CC(=O)N[C@@H](Cc1ccccc1)C(=O)[O-])Cc1cc(OCC(=O)NCCC[N+](C)(C)CC(=O)N[C@@H](Cc3ccccc3)C(=O)[O-])c(cc1OCC(=O)NCCC[N+](C)(C)CC(=O)N[C@@H](Cc1ccccc1)C(=O)[O-])Cc1cc(OCC(=O)NCCC[N+](C)(C)CC(=O)N[C@@H](Cc3ccccc3)C(=O)[O-])c(cc1OCC(=O)NCCC[N+](C)(C)CC(=O)N[C@@H](Cc1ccccc1)C(=O)[O-])C2)CC(=O)N[C@@H](Cc1ccccc1)C(=O)[O-] [Compound 4, 4,8,14,18,23,26,28,31,32,35-Decakis-[(N-[3’-dimethyl({oxidocarbonyl[S-benzyl]methyl}aminocarbonylmethyl)ammonio]propyl)aminocarbonylmethoxy]-pillar[5]arene]
cytotoxic activity (A549 cells [1]; A549, concentration range 2–100 μg/mL): did not show statistically significant cytotoxic activity
change of toxicity on combined action with GIS (A549 cells [2]): No significant differences

Source: PMC10179701, “Towards Protection of Nucleic Acids from Herbicide Attack: Self-Assembly of Betaines Based on Pillar[5]arene with Glyphosate and DNA” (International Journal of Molecular Sciences, 2023)
